Among the test systems are UACC-62 melanoma; MALME-3M melanoma; SN12C renal; SNB-75 CNS; OVCAR-5 ovarian; OVCAR-4 ovarian; HOP-92 NSCLC; 786-0 renal; RPMI-8226 leukemia; TK-10 renal.
Assay in all cases: inhibition of tumour cell growth, NCI panel, 48 h

Experimental findings from PubChem BioAssay (NCI) are described below.

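96-well plates; 48 h exposure; 5 concentrations. Endpoints by linear interpolation between flanking doses. Not reached: highest tested concentration assigned. Abbreviation: GI50, concentration required for 50% inhibition of growth. TGI marks complete inhibition of growth.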

In the case of `O=C(O)CCSCCCN1C(=O)c2ccccc2C1=O`, the TGI with UACC-62 melanoma, in the test with MALME-3M melanoma, in the test with SN12C renal, in the test with SNB-75 CNS, in the test with OVCAR-5 ovarian and in the test with OVCAR-4 ovarian was over 100 µM each time. Besides, the TGI with HOP-92 NSCLC, in the test with 786-0 renal, in the test with RPMI-8226 leukemia and in the test with TK-10 renal was over 100 µM each time.
For the molecule `COc1ccc(-c2cc(-c3ccccc3)nc(N3CCN(CCNc4ccnc5cc(Cl)ccc45)CC3)n2)cc1`, the GI50 is 3.48 µM in the test on UACC-62 melanoma; 1.61 µM in the test on MALME-3M melanoma; 1.64 µM in the test with SN12C renal; 14.9 µM with SNB-75 CNS; 1.92 µM in the test on OVCAR-5 ovarian; 1.87 µM in the test on OVCAR-4 ovarian. Further, the GI50 was 1.14 µM in the test with HOP-92 NSCLC, 1.52 µM in the test with 786-0 renal, 1.65 µM in the test with RPMI-8226 leukemia and 2.19 µM in the test with TK-10 renal. The TGI with UACC-62 melanoma is 11.2 µM; in the test with MALME-3M melanoma, 3.14 µM; in the test on SN12C renal, 3.34 µM; in the test with SNB-75 CNS, 28.8 µM; in the test on OVCAR-5 ovarian it was 4.99 µM; in the test with OVCAR-4 ovarian it was 4.05 µM. The TGI was determined as 3.35 µM with HOP-92 NSCLC, 2.94 µM in the test with 786-0 renal, 4.57 µM in the test with RPMI-8226 leukemia and 4.88 µM with TK-10 renal.
With `NNC(=O)CCC(=O)Nc1cc(Cl)c(Cl)cc1Cl`, the TGI with UACC-62 melanoma, in the test on MALME-3M melanoma, with SN12C renal, with SNB-75 CNS, in the test with OVCAR-5 ovarian and in the test with OVCAR-4 ovarian was over 100 µM throughout. In addition, the TGI in the test on HOP-92 NSCLC, in the test on 786-0 renal, in the test with RPMI-8226 leukemia and in the test on TK-10 renal was over 100 µM each time.
Turning to `C=C(C)[C@@H]1CC[C@]2(C(=O)NCCNCCNCCN)CC[C@]3(C)[C@H](CC[C@@H]4[C@@]5(C)CC[C@H](O)C(C)(C)[C@@H]5CC[C@]43C)[C@@H]12`, the GI50 was 9.29 µM in the test on UACC-62 melanoma; 14.6 µM with MALME-3M melanoma; 13.5 µM with SN12C renal; 11.1 µM in the test on SNB-75 CNS; 18.6 µM with OVCAR-5 ovarian; 14.1 µM in the test on OVCAR-4 ovarian. Also, the GI50 was 4.61 µM with HOP-92 NSCLC, 12.4 µM with 786-0 renal, 2.81 µM in the test with RPMI-8226 leukemia and 15.8 µM in the test with TK-10 renal. Besides, the TGI in the test with UACC-62 melanoma was 23 µM; with MALME-3M melanoma, 28.4 µM; in the test with SN12C renal it was 33.2 µM; in the test on SNB-75 CNS, 27.6 µM; with OVCAR-5 ovarian it was 35 µM; with OVCAR-4 ovarian, 33 µM. Besides, the TGI with HOP-92 NSCLC came out at 19.7 µM; with 786-0 renal, 25.2 µM; with RPMI-8226 leukemia it was 27.6 µM; with TK-10 renal, 31.3 µM.
As to `CC(C)[C@@]12C[C@@H](OC(=O)COC(=O)/C=C/c3ccccc3)[C@@](C)(O1)[C@@H]1CC[C@@H](C)[C@H]1[C@@H]2OC(=O)/C=C/c1ccccc1`, the GI50 is over 100 µM in the test with UACC-62 melanoma; over 100 µM with MALME-3M melanoma; 1.42 µM in the test with SN12C renal; over 100 µM with SNB-75 CNS; over 100 µM in the test on OVCAR-5 ovarian; over 100 µM in the test on OVCAR-4 ovarian. In addition, the GI50 was over 64.9 µM in the test with HOP-92 NSCLC, over 27.1 µM in the test on 786-0 renal, over 89.4 µM in the test on RPMI-8226 leukemia and over 100 µM with TK-10 renal. In addition, the TGI in the test on UACC-62 melanoma, in the test on MALME-3M melanoma, with SN12C renal, in the test on SNB-75 CNS, in the test on OVCAR-5 ovarian and with OVCAR-4 ovarian was over 100 µM each time. Besides, the TGI with HOP-92 NSCLC, with 786-0 renal, with RPMI-8226 leukemia and in the test with TK-10 renal was over 100 µM throughout.
On to `Cc1nc2sc(C(=O)Nc3cccc4ccccc34)c(N)c2cc1C(=O)/C=C/c1ccccc1`, for which the GI50 is 0.235 µM in the test on UACC-62 melanoma; 0.343 µM with MALME-3M melanoma; 0.415 µM in the test on SN12C renal; 0.232 µM in the test with SNB-75 CNS; 0.813 µM in the test with OVCAR-5 ovarian; 1.02 µM in the test on OVCAR-4 ovarian. The GI50 in the test with HOP-92 NSCLC is 0.37 µM; in the test on 786-0 renal, 0.25 µM; in the test on RPMI-8226 leukemia, 0.14 µM; with TK-10 renal, 1.28 µM. Besides, the TGI in the test on UACC-62 melanoma was 3.8 µM; in the test with MALME-3M melanoma, over 34.9 µM; with SN12C renal, 1.88 µM; with SNB-75 CNS it was over 10.4 µM; in the test with OVCAR-5 ovarian it was 2.61 µM; in the test with OVCAR-4 ovarian, over 15.7 µM. Further, the TGI in the test with HOP-92 NSCLC turned out to be 8.97 µM; with 786-0 renal it was 0.979 µM; in the test on RPMI-8226 leukemia it was 0.5 µM; in the test on TK-10 renal, 8.88 µM.
For `O=C1OC(CC(=O)c2ccc(Cl)cc2Cl)C(Cl)=C1Cl` (stereo not given), the TGI in the test with UACC-62 melanoma is 40 µM; with MALME-3M melanoma, 39.2 µM; in the test with SN12C renal, over 31.6 µM; in the test on SNB-75 CNS, over 61.1 µM; in the test with OVCAR-5 ovarian, over 62.8 µM; with OVCAR-4 ovarian it was over 58.4 µM. The TGI was 39.7 µM with HOP-92 NSCLC, 52.2 µM with 786-0 renal, over 73 µM in the test on RPMI-8226 leukemia and over 79 µM in the test on TK-10 renal.
